From patent US20260226048A1, “MULTI-CYCLIC IRAK AND FLT3 INHIBITING COMPOUNDS AND USES THEREOF” (CHILDREN'S HOSPITAL MEDICAL CENTER, priority 2023, published 2026)
Read-outs that look alike come from different tables or passages of the source.

Key:
Type in all cases: cell-based
FLT3 = target: T1, FLT3 (Homo sapiens, UniProt P36888); assay: Reaction Biology NanoBRET target engagement assay in HEK-293 cells, FLT3; conditions: live HEK-293 cells transfected with Kinase-NanoLuc fusion, 1 hour
T1 sequence (P36888 27-993): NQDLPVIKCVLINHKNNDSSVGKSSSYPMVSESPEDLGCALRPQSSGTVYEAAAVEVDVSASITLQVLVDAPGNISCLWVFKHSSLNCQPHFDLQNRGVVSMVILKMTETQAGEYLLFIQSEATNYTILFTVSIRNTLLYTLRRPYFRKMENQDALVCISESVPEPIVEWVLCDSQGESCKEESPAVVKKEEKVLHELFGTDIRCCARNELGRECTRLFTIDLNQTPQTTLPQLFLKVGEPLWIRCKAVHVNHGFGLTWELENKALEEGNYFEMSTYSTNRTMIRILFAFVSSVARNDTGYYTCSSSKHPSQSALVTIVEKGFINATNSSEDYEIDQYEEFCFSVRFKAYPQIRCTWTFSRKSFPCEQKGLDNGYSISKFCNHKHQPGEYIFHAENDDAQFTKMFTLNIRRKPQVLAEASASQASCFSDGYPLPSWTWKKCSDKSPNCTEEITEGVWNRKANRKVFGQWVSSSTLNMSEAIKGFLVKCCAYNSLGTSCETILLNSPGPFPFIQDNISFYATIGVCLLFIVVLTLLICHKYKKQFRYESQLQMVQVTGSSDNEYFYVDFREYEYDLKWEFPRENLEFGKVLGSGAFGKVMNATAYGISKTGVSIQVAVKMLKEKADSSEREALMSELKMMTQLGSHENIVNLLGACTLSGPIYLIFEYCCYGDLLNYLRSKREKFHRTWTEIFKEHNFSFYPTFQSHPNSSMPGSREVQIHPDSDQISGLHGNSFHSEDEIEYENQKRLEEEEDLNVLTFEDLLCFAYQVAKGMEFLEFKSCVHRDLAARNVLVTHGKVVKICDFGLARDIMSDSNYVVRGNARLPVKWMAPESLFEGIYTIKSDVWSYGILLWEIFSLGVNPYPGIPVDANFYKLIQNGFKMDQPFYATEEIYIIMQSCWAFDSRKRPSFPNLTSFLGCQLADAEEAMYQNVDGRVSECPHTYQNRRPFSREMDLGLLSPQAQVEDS
From the text: The NanoBRET assay measures kinase engagement in real time in the context of the intact cell. Unlike the previously described biochemical kinase assay methodology in Example 33, the NanoBRET assay measures the binding and activity characteristics under equilibrium conditions using full-length kinases in the presence of cellular concentrations of ATP in live, uncompromised cells. As such, the assay provides a more relevant assessment of kinase potency and selectivity that would be expected to be observed in the native cellular environment, where potency is often considerably lower than that observed in the isolated biochemical assays (Vasta, J. D. et al., (2018) Cell Chem. Biol. 25, 206-214). The assay uses a Kinase-NanoLuc® fusion vector expressing a kinase protein to which a luciferase tag has been added, a cell-permeant fluorescent NanoBRET™ tracer, a NanoLuc® substrate, and an extracellular NanoLuc® inhibitor. Upon expression of the luciferase-tagged kinase, cells will produce a strong BRET signal only in the presence of the NanoBRET™ tracer. The extracellular NanoLuc® inhibitor ensures that the BRET signal observed emanates only from live cells. Because the BRET signal has tight distance constraints, addition of the test compound will decrease the BRET signal if the compound competes with the NanoBRET™ tracer for binding to the kinase domain. Under the appropriate tracer conditions established by the manufacturer, quantitative intracellular affinity and relative potency can then be determined using Mass Action model equations.
HEK-293 cells were purchased from ATCC. FuGENEHD Transfection Reagent, Kinase-NanoLucfusion plasmids, Transfection Carrier DNA, NanoBRETTracers and dilution buffer, NanoBRETNano-Glo Substrate, Extracellular NanoLucInhibitor were obtained from Promega.
Assays were conducted following Promega assay protocol with some modifications. HEK-293 Cells were transiently transfected with Kinase-NanoLucFusion Vector DNA by FuGENEHD Transfection Reagent. Testing compounds were delivered into 384 well assay plate by Echo 550 (LabcyteInc, Sunnyvale, CA). Transfected cells were harvested and mixed with NanoBRETTracer Reagent and dispensed into 384 well plates and incubated at 37° C. in 5% C02 cell culture incubator for 1 hour. The NanoBRETNano-Glo Substrate plus Extracellular NanoLucInhibitor Solution were added into the wells of the assay plate and incubated for 2-3 minutes at room temperature. The donor emission wavelength (460 nm) and acceptor emission wavelength (600 nm) were measured in the EnVisionplate reader. The BRET Ratios were calculated. BRET Ratio=[(Acceptor sample÷Donor sample)−(Acceptor no-tracer control÷Donor no-tracer control)]. The IC50 values of compounds were calculated with Prism GraphPad program.
• 1). Cultivate HEK-293 cells (70-80% confluence) appropriately prior to assay. Trypsinize and collect HEK-293 cells. • 2). Prepare lipid: DNA complexes as follows: • a. Prepare a 10 μg/ml solution of DNA in Opti-MEM without serum that consists of the following ratios of carrier DNA and DNA encoding NanoLuc® fusion. 9.0 μg/mL of Transfection Carrier DNA, 1.0 μg/mL of NanoLuc fusion vector DNA and 1 mL of Opti-MEM without phenol red. Mix thoroughly. • b. Add 30 μl of FuGENE HD Transfection Reagent into each milliliter of DNA mixture to form lipid: DNA complex. • c. Mix by inversion 10 times. • d. Incubate at ambient temperature for 20 minutes to allow complexes to form. • 3). In a sterile, conical tube, mix 1 part of lipid:DNA complex with 20 parts of HEK-293 cells in suspension. Mix gently by inversion 5 times. • 4). Dispense cells+lipid:DNA complex into a sterile tissue culture dish and incubate for 22-24 hours.
Each test compound is delivered from the compound source plate to the wells of 384-well white NBS plate by Echo 550.
3. Preparation of Cells with NanoBRET™ Tracer Reagent • 1). […]

MOLM14 D835Y cells = assay: MOLM14 D835Y cell viability assay (Cell Titer Glo); conditions: cell viability, Cell Titer Glo, 48 hours, read-out: MOLM14 D835Y IC50
In short: (§1)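 MOLM14 cells with FLT3 D835Y or F691L kinase-domain resistance mutations seeded at 1000 cells/well and exposed to compound for 48 h under standard incubator conditions. Viability read by CellTiter-Glo luminescence after 15 min at room temperature.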

MOLM14 F691L cells = assay: MOLM14 F691L cell viability assay (Cell Titer Glo); conditions: Homo sapiens, MOLM-14; cell viability, Cell Titer Glo, 48 hours; read-out: MOLM14 F691L IC50
In short: as §1

## CC(O)(c1ccc2ncc(-c3ccnc(N[C@@H]4CCCNC4)n3)n2c1)C(F)(F)F (single isomer, unassigned) [Compound 22a]
FLT3
  IC50: 38 nM
MOLM14 D835Y cells
  IC50: 36 nM

## CC(O)(c1ccc2ncc(-c3ccnc(N[C@@H]4CCCNC4)n3)n2c1)C(F)(F)F (single isomer, unassigned) [Compound 23a]
FLT3
  IC50: 3 nM
MOLM14 D835Y cells
  IC50: 16 nM

## CC(O)(c1ccc2ncc(-c3ccnc(N[C@H]4CNCC[C@@H]4F)n3)n2c1)C(F)(F)F (single isomer, unassigned) [Compound 25a]
FLT3
  IC50: 40 nM
MOLM14 D835Y cells; Homo sapiens, MOLM-14, 48 h
  IC50: 36 nM

## CC(O)(c1ccc2ncc(-c3cncc(N[C@@H]4CCCNC4)n3)n2c1)C(F)(F)F (single isomer, unassigned) [Compound 28a]
FLT3
  IC50: 2960 nM
MOLM14 D835Y cells; Homo sapiens, MOLM-14, 48 h
  IC50: 204 nM

## CC(O)(c1ccc2ncc(-c3cncc(N[C@H]4CNCC[C@@H]4F)n3)n2c1)C(F)(F)F (single isomer, unassigned) [Compound 31a]
FLT3
  IC50: 1810 nM
MOLM14 D835Y cells
  IC50: 162 nM

## COc1cc2ncc(-c3nc(N[C@H]4CNCC[C@@H]4F)ncc3F)n2nc1C1CC1 [Compound 1a, 4-(6-cyclopropyl-7-methoxyimidazo[1,2-b]pyridazin-3-yl)-5-fluoro-N-((3S,4S)-4-fluoropiperidin-3-yl)pyrimidin-2-amine]
FLT3
  IC50: 1 nM
MOLM14 D835Y cells; Homo sapiens, MOLM-14, 48 h
  IC50: 1 nM
MOLM14 F691L cells
  IC50: 6 nM

## FC(F)COc1cc2ncc(-c3ccnc(N[C@H]4CNCC[C@@H]4F)n3)n2nc1C1CC1 [Compound 4a, 4-(6-cyclopropyl-7-(2,2-difluoroethoxy)imidazo[1,2-b]pyridazin-3-yl)-N-((3 S,4S)-4-fluoropiperidin-3-yl)pyrimidin-2-amine]
FLT3
  IC50: 4 nM
MOLM14 D835Y cells; Homo sapiens, MOLM-14, 48 h
  IC50: 9 nM
MOLM14 F691L cells
  IC50: 36 nM

## F[C@H]1CCNC[C@@H]1Nc1nccc(-c2cnc3cc(OC4CC4)c(C4CC4)nn23)n1 [Compound 12a, 4-(7-cyclopropoxy-6-cyclopropylimidazo[1,2-b]pyridazin-3-yl)-N-((3S,4S)-4-fluoropiperidin-3-yl)pyrimidin-2-amine]
FLT3
  IC50: < 0.5 nM
MOLM14 D835Y cells; Homo sapiens, MOLM-14, 48 h
  IC50: 23 nM
MOLM14 F691L cells
  IC50: 101 nM

## COc1cc2ncc(-c3nc(N[C@H]4CNCC[C@@H]4F)ncc3F)n2nc1C(C)(C)O [Compound 45a, 2-(3-(5-fluoro-2-(((3S,4S)-4-fluoropiperidin-3-yl)amino)pyrimidin-4-yl)-7-methoxyimidazo[1,2-b]pyridazin-6-yl)propan-2-ol]
FLT3
  IC50: 44 nM
MOLM14 D835Y cells; Homo sapiens, MOLM-14, 48 h
  IC50: 15 nM
MOLM14 F691L cells
  IC50: 90 nM

## CC(C)(O)c1ccc2ncc(-c3nc(N[C@H]4CNCC[C@@H]4F)ncc3F)n2c1 [Compound 46a, 2-(3-(5-fluoro-2-(((3S,4S)-4-fluoropiperidin-3-yl)amino)pyrimidin-4-yl)imidazo[1,2-a]pyridin-6-yl)propan-2-ol]
FLT3
  IC50: 102 nM
MOLM14 D835Y cells; Homo sapiens, MOLM-14, 48 h
  IC50: 33 nM
MOLM14 F691L cells
  IC50: 252 nM

## CC(C)(O)c1ccc2ncc(-c3nc(N[C@@H]4CCCNC4)ncc3F)n2c1 [Compound 48a, (R)-2-(3-(5-fluoro-2-(piperidin-3-ylamino)pyrimidin-4-yl)imidazo[1,2-a]pyridin-6-yl)propan-2-ol]
FLT3
  IC50: 141 nM
MOLM14 D835Y cells; Homo sapiens, MOLM-14, 48 h
  IC50: 36 nM

## COc1cc2ncc(-c3nc(N[C@H]4CNCC[C@@H]4F)ncc3F)n2nc1C1CC(F)(F)C1 [Compound 49a, 4-(6-(3,3-difluorocyclobutyl)-7-methoxyimidazo[1,2-b]pyridazin-3-yl)-5-fluoro-N-((3S,4S)-4-fluoropiperidin-3-yl)pyrimidin-2-amine]
FLT3
  IC50: < 0.5 nM
MOLM14 D835Y cells; Homo sapiens, MOLM-14, 48 h
  IC50: 15 nM

## COc1cc2ncc(-c3nc(N[C@@H]4CCCNC4)ncc3F)n2nc1C1CC2(CCC2)C1 [Compound 59a, (R)-5-fluoro-4-(7-methoxy-6-(spiro[3.3]heptan-2-yl)imidazo[1,2-b]pyridazin-3-yl)-N-(piperidin-3-yl)pyrimidin-2-amine]
MOLM14 D835Y cells; Homo sapiens, MOLM-14, 48 h
  IC50: 7 nM
MOLM14 F691L cells
  IC50: 45 nM

## COc1cc2ncc(-c3nc(N[C@H]4CNCC[C@@H]4F)ncc3F)n2nc1C1CC2(CCC2)C1 [Compound 60a, 5-fluoro-N-((3S,4S)-4-fluoropiperidin-3-yl)-4-(7-methoxy-6-(spiro[3.3]heptan-2-yl)imidazo[1,2-b]pyridazin-3-yl)pyrimidin-2-amine]
MOLM14 D835Y cells; Homo sapiens, MOLM-14, 48 h
  IC50: 11 nM
MOLM14 F691L cells
  IC50: 90 nM

## COc1cc2ncc(-c3ccnc(N[C@H]4CNCC[C@@H]4F)n3)n2nc1C1CCC1 [Compound 79a, 4-(6-cyclobutyl-7-methoxyimidazo[1,2-b]pyridazin-3-yl)-N-((3S,4S)-4-fluoropiperidin-3-yl)pyrimidin-2-amine]
FLT3
  IC50: < 0.5 nM
MOLM14 D835Y cells; Homo sapiens, MOLM-14, 48 h
  IC50: 20 nM
MOLM14 F691L cells
  IC50: 101 nM

## COc1cc2ncc(-c3nc(N[C@H]4CNCC[C@@H]4F)ncc3F)n2nc1C1COC1 [Compound 92a, 5-fluoro-N-((3S,4S)-4-fluoropiperidin-3-yl)-4-(7-methoxy-6-(oxetan-3-yl)imidazo[1,2-b]pyridazin-3-yl)pyrimidin-2-amine]
FLT3
  IC50: 4 nM
MOLM14 D835Y cells; Homo sapiens, MOLM-14, 48 h
  IC50: 5 nM
MOLM14 F691L cells
  IC50: 40 nM

## CC(C)(O)c1cn2c(-c3nc(N[C@H]4CNCC[C@@H]4F)ncc3F)cnc2cn1 [Compound 100a, 2-(3-(5-fluoro-2-(((3S,4S)-4-fluoropiperidin-3-yl)amino)pyrimidin-4-yl)imidazo[1,2-a]pyrazin-6-yl)propan-2-ol]
FLT3
  IC50: 4250 nM
MOLM14 D835Y cells; Homo sapiens, MOLM-14, 48 h
  IC50: 90 nM
MOLM14 F691L cells
  IC50: 603 nM

## COc1cc2ncc(-c3nc(N[C@H]4CNC[C@@H]4F)ncc3F)n2nc1N1CCCS1(=O)=O [Compound 111a, 2-(3-(5-fluoro-2-(((3S,4S)-4-fluoropyrrolidin-3-yl)amino)pyrimidin-4-yl)-7-methoxyimidazo[1,2-b]pyridazin-6-yl)isothiazolidine 1,1-dioxide]
FLT3
  IC50: 77 nM
MOLM14 D835Y cells; Homo sapiens, MOLM-14, 48 h
  IC50: 13 nM
MOLM14 F691L cells
  IC50: 113 nM
